Reference: patent publication US11149023B2, “Substituted triazole derivatives and uses thereof” (Bayer Pharma Aktiengesellschaft, priority 2017, dated 2021)

How the values were obtained:
[1] = target: human V2 receptor (Homo sapiens (Human), UniProt P30518); test: Cellular in vitro assay for determining vasopressin receptor activity (V2, CRE-luciferase); type: cell-based; details: CHO cell line transfected with human V2 receptor; [Arg8]-vasopressin at EC50 concentration; read-out: IC50 hV2
Description: (§1) B-1. Cellular In Vitro Assay for Determining Vasopressin Receptor Activity
(§2) The identification of agonists and antagonists of the V1a and V2 vasopressin receptors from humans, rats and dogs as well as the quantification of the activity of the compounds of the invention is carried out using recombinant cell lines. These cell lines originally derive from a hamster's ovary epithelial cell (Chinese Hamster Ovary, CHO K1, ATCC: American Type Culture Collection, Manassas, Va. 20108, USA). The test cell lines constitutively express the human, rat or dog V1a or V2 receptors. In case of the Gαq-coupled V1a receptors, cells are also stably transfected with a modified form of the calcium-sensitive photoproteins aequorin (human and rat V1a) or obe-lin (dog V1a), which, after reconstitution with the cofactor coelenterazine, emit light when there are increases in free calcium concentrations [Rizzuto R, Simpson A W, Brini M, Pozzan T, Nature 358, 325-327 (1992); Illarionov B A, Bondar V S, Illarionova V A, Vysotski E S, Gene 153 (2), 273-274 (1995)]. The resulting vasopressin receptor cells react to stimulation of the recombinantly expressed Via receptors by intracellular release of calcium ions, which can be quantified by the resulting photoprotein luminescence. The Gs-coupled V2 receptors are stably transfected into cell lines expressing the gene for firefly luciferase under control of a CRE-responsible promoter. Activation of V2 receptors induces the activation of the CRE-responsive promoter via cAMP increase, thereby inducing the expression of firefly luciferase. The light emitted by photoproteins of V1a cell lines as well as the light emitted by firefly luciferase of V2 cell lines corresponds to the activation or inhibition of the respective vasopressin receptor. The bioluminescence of the cell lines is detected using a suitable luminometer [Milligan G, Marshall F, Rees S, Trends in Pharmacological Sciences 17, 235-237 (1996)].
Vasopressin V2 Receptor Cell Lines:
On the day before the assay, the cells are plated out in culture medium (DMEM/F12, 2% FCS, 2 mM glutamine, 10 mM HEPES) in 384-well microtiter plates and kept in a cell incubator (96% humidity, 5% v/v CO2, 37° C.). On the day of the assay, test compounds in various concentrations and the agonist [Arg^8]-vasopressin at EC50 concentration are added together to the wells, and plates are incubated for 3 hours in a cell incubator. Upon addition of the cell lysis reagent Triton™ and the substrate luciferin, luminescence of firefly luciferase is measured in a luminometer.
(§3) Table 1A below lists individual IC50 values for the compounds of the invention (including racemic mixtures as well as separated enantiomers) that were obtained from cell lines transfected with the human Via or V2 receptor: […]

[2] = target: human V1a receptor (Homo sapiens (Human), UniProt P37288); test: Cellular in vitro assay for determining vasopressin receptor activity (V1a, aequorin luminescence); type: cell-based; details: for IC50: CHO cell line transfected with human V1a receptor, [Arg8]-vasopressin at EC50 concentration, read-out: IC50 hV1a; for ratio IC50 hV2/hV1a: selectivity, IC50 hV2 divided by IC50 hV1a
Chain of human V1a receptor (P37288 whole entry): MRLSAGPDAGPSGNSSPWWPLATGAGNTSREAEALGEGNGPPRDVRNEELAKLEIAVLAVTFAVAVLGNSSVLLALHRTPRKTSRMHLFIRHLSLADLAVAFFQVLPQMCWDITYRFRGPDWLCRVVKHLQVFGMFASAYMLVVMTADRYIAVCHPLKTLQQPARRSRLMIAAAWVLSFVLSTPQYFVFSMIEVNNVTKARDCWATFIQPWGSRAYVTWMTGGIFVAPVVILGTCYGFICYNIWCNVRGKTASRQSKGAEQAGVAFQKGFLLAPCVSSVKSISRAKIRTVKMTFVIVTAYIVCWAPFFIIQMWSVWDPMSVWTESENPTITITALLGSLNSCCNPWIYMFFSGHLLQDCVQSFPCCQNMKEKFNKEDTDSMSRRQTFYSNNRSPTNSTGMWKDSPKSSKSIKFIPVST
Description: as §1, §2
Vasopressin V1a Receptor Cell Lines:
On the day before the assay, the cells are plated out in culture medium (DMEM/F12, 2% FCS, 2 mM glutamine, 10 mM HEPES, 5 μg/ml coelenterazine) in 384-well microtiter plates and kept in a cell incubator (96% humidity, 5% v/v CO2, 37° C.). On the day of the assay, test compounds in various concentrations are placed for 10 minutes in the wells of the microtiter plate before the agonist [Arg^8]-vasopressin at EC50 concentration is added. The resulting light signal is measured immediately in a luminometer.
as §3

Chain of human V2 receptor (P30518 whole entry): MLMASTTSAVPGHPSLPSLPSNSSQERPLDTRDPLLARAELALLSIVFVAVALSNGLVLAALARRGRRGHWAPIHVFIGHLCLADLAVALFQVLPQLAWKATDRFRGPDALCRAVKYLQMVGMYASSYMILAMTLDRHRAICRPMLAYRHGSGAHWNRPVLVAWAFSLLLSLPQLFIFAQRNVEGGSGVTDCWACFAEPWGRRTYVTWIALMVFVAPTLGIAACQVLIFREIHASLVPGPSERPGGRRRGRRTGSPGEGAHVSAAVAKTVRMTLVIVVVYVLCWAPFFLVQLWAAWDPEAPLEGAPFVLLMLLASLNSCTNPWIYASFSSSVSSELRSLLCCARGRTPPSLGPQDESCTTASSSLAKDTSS

Question: O=C(NC(Cn1c(-c2ccc(Cl)cc2)nn(Cc2ncn(-c3ncccc3Cl)n2)c1=O)C(F)(F)F)C1COC1 (racemic) [Example 1, N-{3-[3-(4-Chlorophenyl)-1-{[1-(3-chloropyridin-2-yl)-1H-1,2,4-triazol-3-yl]methyl}-5-oxo-1,5-dihydro-4H-1,2,4-triazol-4-yl]-1,1,1-trifluoropropan-2-yl}oxetane-3-carboxamide] was tested. Which IC50 [1] did it give?
Answer: 245 nM

Question: And the IC50 [2]?
Answer: 4.9 nM

Question: And the “ratio IC50 hV2/hV1a” value [2]?
Answer: 50.0

Question: With CC(=O)NC(Cn1c(-c2ccc(Cl)cc2)nn(Cc2ncn(-c3ncccc3Cl)n2)c1=O)C(F)(F)F (racemic) [Example 4, N-{3-[3-(4-Chlorophenyl)-1-{[1-(3-chloropyridin-2-yl)-1H-1,2,4-triazol-3-yl]methyl}-5-oxo-1,5-dihydro-4H-1,2,4-triazol-4-yl]-1,1,1-trifluoropropan-2-yl}acetamide] as the compound, how does the IC50 [1] read?
Answer: 1850 nM

Question: And the IC50 [2]?
Answer: 55.5 nM

Question: And the “ratio IC50 hV2/hV1a” value [2]?
Answer: 33.3

Question: Which IC50 [1] does the source give for N#CCC(=O)NC(Cn1c(-c2ccc(Cl)cc2)nn(Cc2ncn(-c3ncccc3Cl)n2)c1=O)C(F)(F)F (racemic) [Example 5, N-{3-[3-(4-Chlorophenyl)-1-{[1-(3-chloropyridin-2-yl)-1H-1,2,4-triazol-3-yl]methyl}-5-oxo-1,5-dihydro-4H-1,2,4-triazol-4-yl]-1,1,1-trifluoropropan-2-yl}-2-cyanoacetamide] here?
Answer: 595 nM

Question: And the IC50 [2]?
Answer: 10.6 nM

Question: And the “ratio IC50 hV2/hV1a” value [2]?
Answer: 56.4

Question: Which IC50 [1] does the source give for COCC(=O)NC(Cn1c(-c2ccc(Cl)cc2)nn(Cc2ncn(-c3ncccc3Cl)n2)c1=O)C(F)(F)F (racemic) [Example 6, N-{3-[3-(4-Chlorophenyl)-1-{[1-(3-chloropyridin-2-yl)-1H-1,2,4-triazol-3-yl]methyl}-5-oxo-1,5-dihydro-4H-1,2,4-triazol-4-yl]-1,1,1-trifluoropropan-2-yl}-2-methoxyacetamide] here?
Answer: 630 nM

Question: What about the IC50 [2] of the same compound?
Answer: 5.65 nM

Question: What about the “ratio IC50 hV2/hV1a” value [2] of the same compound?
Answer: 111.5

Question: Which results are given for O=C(CF)NC(Cn1c(-c2ccc(Cl)cc2)nn(Cc2ncn(-c3ncccc3Cl)n2)c1=O)C(F)(F)F (racemic) [Example 8]?
Answer: IC50 [1]: 2200 nM; IC50 [2]: 42.5 nM; ratio IC50 hV2/hV1a [2]: 51.8

Question: How did the IC50 [1] turn out when CC(F)(F)C(=O)NC(Cn1c(-c2ccc(Cl)cc2)nn(Cc2ncn(-c3ncccc3Cl)n2)c1=O)C(F)(F)F (racemic) [Example 9] was run?
Answer: 660 nM

Question: And the IC50 [2]?
Answer: 10 nM

Question: What about the “ratio IC50 hV2/hV1a” value [2] of the same compound?
Answer: 66.0

Question: What does the source list for O=C(CC(F)(F)F)NC(Cn1c(-c2ccc(Cl)cc2)nn(Cc2ncn(-c3ncccc3Cl)n2)c1=O)C(F)(F)F (racemic) [Example 11, N-{3-[3-(4-Chlorophenyl)-1-{[1-(3-chloropyridin-2-yl)-1H-1,2,4-triazol-3-yl]methyl}-5-oxo-1,5-dihydro-4H-1,2,4-triazol-4-yl]-1,1,1-trifluoropropan-2-yl}-3,3,3-trifluoropropanamide]?
Answer: IC50 [1]: 45.5 nM; IC50 [2]: 1.2 nM; ratio IC50 hV2/hV1a [2]: 37.9

Question: How did the “ratio IC50 hV2/hV1a” value [2] turn out when O=C(CCC(F)(F)F)NC(Cn1c(-c2ccc(Cl)cc2)nn(Cc2ncn(-c3ncccc3Cl)n2)c1=O)C(F)(F)F (racemic) [Example 33, N-{3-[3-(4-Chlorophenyl)-1-{[1-(3-chloropyridin-2-yl)-1H-1,2,4-triazol-3-yl]methyl}-5-oxo-1,5-dihydro-4H-1,2,4-triazol-4-yl]-1,1,1-trifluoropropan-2-yl}-4,4,4-trifluorobutanamide] was run?
Answer: 26.1

Question: For O=C(CCC(F)(F)F)NC(Cn1c(-c2ccc(Cl)cc2)nn(Cc2ncn(-c3ncccc3Cl)n2)c1=O)C(F)(F)F (racemic) [Example 34, N-{3-[3-(4-Chlorophenyl)-1-{[1-(3-chloropyridin-2-yl)-1H-1,2,4-triazol-3-yl]methyl}-5-oxo-1,5-dihydro-4H-1,2,4-triazol-4-yl]-1,1,1-trifluoropropan-2-yl}-4,4,4-trifluorobutanamide], which “ratio IC50 hV2/hV1a” value [2] is on record?
Answer: 40.9

Question: For O=C(NC(Cn1c(-c2ccc(Cl)cc2)nn(Cc2ncn(-c3ncccc3Cl)n2)c1=O)C(F)(F)F)C1CS(=O)(=O)C1 (racemic) [Example 39, N-{3-[3-(4-Chlorophenyl)-1-{[1-(3-chloropyridin-2-yl)-1H-1,2,4-triazol-3-yl]methyl}-5-oxo-1,5-dihydro-4H-1,2,4-triazol-4-yl]-1,1,1-trifluoropropan-2-yl}thietane-3-carboxamide 1,1-dioxide], which “ratio IC50 hV2/hV1a” value [2] is on record?
Answer: 110.9

Question: With O=C(NC(Cn1c(-c2ccc(Cl)cc2)nn(Cc2ncn(-c3ncccc3Cl)n2)c1=O)C(F)(F)F)C1CS(=O)(=O)C1 (racemic) [Example 40, N-{3-[3-(4-Chlorophenyl)-1-{[1-(3-chloropyridin-2-yl)-1H-1,2,4-triazol-3-yl]methyl}-5-oxo-1,5-dihydro-4H-1,2,4-triazol-4-yl]-1,1,1-trifluoropropan-2-yl}thietane-3-carboxamide 1,1-dioxide] as the compound, how does the “ratio IC50 hV2/hV1a” value [2] read?
Answer: 26.7

Question: Which “ratio IC50 hV2/hV1a” value [2] does the source give for CS(=O)(=O)CC(=O)NC(Cn1c(-c2ccc(Cl)cc2)nn(Cc2ncn(-c3ncccc3Cl)n2)c1=O)C(F)(F)F (racemic) [Example 45, N-{3-[3-(4-Chlorophenyl)-1-{[1-(3-chloropyridin-2-yl)-1H-1,2,4-triazol-3-yl]methyl}-5-oxo-1,5-dihydro-4H-1,2,4-triazol-4-yl]-1,1,1-trifluoropropan-2-yl}-2-(methylsulfonyl)acetamide] here?
Answer: 9.8

Question: With CS(=O)(=O)CC(=O)NC(Cn1c(-c2ccc(Cl)cc2)nn(Cc2ncn(-c3ncccc3Cl)n2)c1=O)C(F)(F)F (racemic) [Example 46, N-{3-[3-(4-Chlorophenyl)-1-{[1-(3-chloropyridin-2-yl)-1H-1,2,4-triazol-3-yl]methyl}-5-oxo-1,5-dihydro-4H-1,2,4-triazol-4-yl]-1,1,1-trifluoropropan-2-yl}-2-(methylsulfonyl)acetamide] as the compound, how does the “ratio IC50 hV2/hV1a” value [2] read?
Answer: 42.8

Question: For O=C(NC(Cn1c(-c2ccc(Cl)cc2)nn(Cc2ncn(-c3ncccc3Cl)n2)c1=O)C(F)(F)F)[C@@H]1C[C@H](F)CN1 (stereo in doubt) [Example 48, N-{3-[3-(4-Chlorophenyl)-1-{[1-(3-chloropyridin-2-yl)-1H-1,2,4-triazol-3-yl]methyl}-5-oxo-1,5-dihydro-4H-1,2,4-triazol-4-yl]-1,1,1-trifluoropropan-2-yl}-4-fluoro-prolinamide], which “ratio IC50 hV2/hV1a” value [2] is on record?
Answer: 56.5

Question: With O=C(NC(Cn1c(-c2ccc(Cl)cc2)nn(Cc2ncn(-c3ncccc3Cl)n2)c1=O)C(F)(F)F)[C@@H]1C[C@@H](F)CN1 (stereo in doubt) [Example 49, N-{3-[3-(4-Chlorophenyl)-1-{[1-(3-chloropyridin-2-yl)-1H-1,2,4-triazol-3-yl]methyl}-5-oxo-1,5-dihydro-4H-1,2,4-triazol-4-yl]-1,1,1-trifluoropropan-2-yl}-4-fluoro-prolinamide] as the compound, how does the “ratio IC50 hV2/hV1a” value [2] read?
Answer: 112.7

Question: O=C(NC(Cn1c(-c2ccc(Cl)cc2)nn(Cc2ncn(-c3ncccc3Cl)n2)c1=O)C(F)(F)F)C1(C(F)(F)F)CC1 (stereo not drawn) [Example 42, N-{3-[3-(4-Chlorophenyl)-1-{[1-(3-chloropyridin-2-yl)-1H-1,2,4-triazol-3-yl]methyl}-5-oxo-1,5-dihydro-4H-1,2,4-triazol-4-yl]-1,1,1-trifluoropropan-2-yl}-1-(trifluoromethyl)cyclopropane-carboxamide] was tested. Which “ratio IC50 hV2/hV1a” value [2] did it give?
Answer: 9.0
